Consider 8 molecules from patent publication US20030162300A1, “Galactomannan-oligosaccharides and methods for the production and use thereof” (priority 1999, published 2003).

Data set [1] can be described thus: Stability in the stomach: hydrolysis rate at pH 1.0 and 2.0. Format: physicochemical. Particulars: 37° C. The procedure: For this purpose, 1% galactomanno-oligosaccharide solutions were incubated for 3 h at a pH value of 1.0 (0.1 M HCl) and a pH value of 2.0 (0.01 M HCl) and a temperature of 37° C. After 60, 120, and 180 min, samples were taken from the reaction batch and analyzed by means of HPAEC. The control substances used were saccharose and 1-kestose.

Data set [2] has as its system Reh(pre-B) on the colon cell line HT 29. Put plainly: Adhesion assay: Reh (pre-B) on the colon cell line HT 29. The following applies: 10 μg/batch; for Mittelwert (%) (mean value), specific adhesion: percentage of the 100% value; for Index: relative to without carbohydrate = 1.00. Format: cell-based. The procedure: In the adhesion assay, the influence of galactomanno-oligosaccharides according to the present invention on the adhesion of B cell lines (for example, Reh) and normal human B lymphocytes to epithelial cells (colon tumor line HT 29) was measured. In the overlay assay used, the lymphocytes were intracellularly marked with calcein so as to make it possible to carry out the measurement by means of fluorometry.
First, coating with the adherent colon epithelial cell one (HT 29) in microtiter plates (24-hole Costar® plates) took place, with incubation (37° C., overnight) until a confluent bed has formed. This is done as much as possible in a serum-free medium Inoculum: 1×10^4 cells. Before the subsequent assay was carried out, the adherent cells were washed three times with PBS(phosphate-buffered physiological saline solution) and blocked for 1 h at room temperature with PBS+1% bovine serum albumin (BSA).
The untreated B cell lines or isolated B lymphocytes to be tested were marked with fluorescent calcein (1×10^7 cells in 2 mL of RPMI medium+HEPES+10 μL of calcein AM, 30 min, 37° C.; subsequently washed 2× with HBSS (Hanks buffer)+0.25% BSA) and 1×10^6 cells in 0.5 mL of PBS+0.25% […] per hole were incubated for 1 h. The culture plate was placed on a shaker for 10 sec, 0.5 mL of 0.2% glutaraldehyde in PBS+0.2% BSA per hole were added and incubated for 10 min on the shaker. The fluorescence of the plate was measured in a fluorescence measuring device ([…]).
The first measurement corresponds to the 100% value. Subsequently, the plate was washed four times and again measured. This measurement corresponds to the specific adhesion which is expressed as a percentage of the 100% value minus the autofluorescence value (unmarked cells). The control substances used were galactose and glucose.

For data set [3], the target named is T1, saccharase/isomaltase (SI complex) (Sus scrofa, UniProt P56729).
T1 construct: were isolated from the thin intestine of pigs using the method described by H. Heymann; from tissue; host or cells: pig small intestine (mucous membrane)
T1 sequence (P56729 with tags, fused parts or gaps): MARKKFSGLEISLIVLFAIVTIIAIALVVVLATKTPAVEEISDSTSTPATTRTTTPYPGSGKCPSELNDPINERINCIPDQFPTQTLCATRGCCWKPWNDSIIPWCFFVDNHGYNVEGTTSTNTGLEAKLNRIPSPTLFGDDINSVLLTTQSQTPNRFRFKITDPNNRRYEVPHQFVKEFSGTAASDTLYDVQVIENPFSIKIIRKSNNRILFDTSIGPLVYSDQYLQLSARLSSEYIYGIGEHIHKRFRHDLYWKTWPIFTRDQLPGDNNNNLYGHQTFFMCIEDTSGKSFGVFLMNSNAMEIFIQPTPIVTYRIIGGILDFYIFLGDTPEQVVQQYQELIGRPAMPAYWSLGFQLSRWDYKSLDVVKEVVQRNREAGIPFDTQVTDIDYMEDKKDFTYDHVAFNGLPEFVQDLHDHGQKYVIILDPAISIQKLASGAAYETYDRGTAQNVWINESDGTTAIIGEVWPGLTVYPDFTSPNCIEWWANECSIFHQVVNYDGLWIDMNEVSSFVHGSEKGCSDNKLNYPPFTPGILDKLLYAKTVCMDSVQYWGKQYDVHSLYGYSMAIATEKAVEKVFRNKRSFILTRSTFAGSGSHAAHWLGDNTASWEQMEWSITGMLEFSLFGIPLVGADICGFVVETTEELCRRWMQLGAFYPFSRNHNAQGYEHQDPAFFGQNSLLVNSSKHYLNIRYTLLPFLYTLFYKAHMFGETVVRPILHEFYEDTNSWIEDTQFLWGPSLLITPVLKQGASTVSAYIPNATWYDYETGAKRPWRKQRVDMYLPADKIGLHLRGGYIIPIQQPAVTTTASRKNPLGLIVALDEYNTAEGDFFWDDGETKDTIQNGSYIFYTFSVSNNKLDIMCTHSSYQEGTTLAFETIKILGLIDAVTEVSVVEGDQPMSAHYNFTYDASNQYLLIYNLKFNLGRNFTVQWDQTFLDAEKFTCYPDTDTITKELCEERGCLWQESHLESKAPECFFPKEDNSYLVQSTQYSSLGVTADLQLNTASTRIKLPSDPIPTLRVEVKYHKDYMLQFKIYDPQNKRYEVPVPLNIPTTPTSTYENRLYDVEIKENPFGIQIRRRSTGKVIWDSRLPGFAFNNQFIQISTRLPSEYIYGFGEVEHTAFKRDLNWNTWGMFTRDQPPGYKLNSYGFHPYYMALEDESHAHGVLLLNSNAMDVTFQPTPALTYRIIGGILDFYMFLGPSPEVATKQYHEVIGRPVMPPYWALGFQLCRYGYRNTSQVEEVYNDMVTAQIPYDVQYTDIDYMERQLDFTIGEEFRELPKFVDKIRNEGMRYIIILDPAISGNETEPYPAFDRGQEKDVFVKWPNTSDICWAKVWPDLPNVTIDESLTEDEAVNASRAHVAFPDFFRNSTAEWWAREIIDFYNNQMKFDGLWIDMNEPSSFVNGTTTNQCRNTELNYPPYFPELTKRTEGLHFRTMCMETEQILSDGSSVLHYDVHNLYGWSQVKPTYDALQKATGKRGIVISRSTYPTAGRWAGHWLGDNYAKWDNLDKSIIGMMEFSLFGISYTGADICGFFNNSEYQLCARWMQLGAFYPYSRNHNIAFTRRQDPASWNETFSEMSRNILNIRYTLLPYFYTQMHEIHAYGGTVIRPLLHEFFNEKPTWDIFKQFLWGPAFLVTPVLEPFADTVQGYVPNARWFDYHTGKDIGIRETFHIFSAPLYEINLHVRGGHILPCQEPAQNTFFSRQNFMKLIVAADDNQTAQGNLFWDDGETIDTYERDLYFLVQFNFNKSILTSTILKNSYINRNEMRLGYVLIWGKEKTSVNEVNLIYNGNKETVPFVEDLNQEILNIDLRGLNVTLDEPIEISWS
Put plainly: Cleavability by alpha-glucosidases of the small intestine, SI complex. Format: in vitro ADME, pigs. Particulars: SI enzyme complex 0.7 U, 1% in TRA buffer pH 7.0, 2 h, 37° C. From the text:
In vivo, the enzyme complexes saccharase/isomaltase and glucoamylase/maltase which are present in the mucous membranes of the small intestine ensure that after their passage into the small intestine, the disaccharides maltose and saccharose and in part also the malto-oligosaccharides are cleaved to form monosaccharides and as such are able to reach the circulatory system via the intestinal wall.
The stability of the galactomanno-oligosaccharides according to the present invention against these enzymes was tested as follows:
The enzyme complexes saccharase/isomaltase (SI complex) and glucoamylase/maltase (GM complex) were isolated from the thin intestine of pigs using the method described by H. Heymann (dissertation, Hannover, 1991).
The cleavability of the galactomanno-oligosaccharides according to the present invention by means of a-glucosidases present in the small intestine was determined as follows:
Triethanolamine (TRA) buffer, 0.1 M, pH 7.0
Galactomanno-oligosaccharides, 1% solution in TRA buffer
Maltose and saccharose as control substances, 1% in TRA buffer […]
At t=0, 0.7 U of the enzyme complex saccharase/isomaltase or glucoamylase/maltase were added to 1.2 mL of the carbohydrate solution which had been heated to a temperature of 37° C., mixed, and incubated at 37° C. […] The monosaccharides formed as well as the test substances used were quantitatively determined by means of HPAEC.

For data set [4], the system named is fresh tooth plaque (mixed culture). Put plainly: Stability in the mouth: incubation with fresh tooth plaque. Type of data set: in vitro ADME, male volunteers. The following applies: 10 mg plaque in 1 mL 1% solution, pH 7.5, 37° C., 2 h (120 min). The procedure:
Plaque samples were obtained from three male volunteers who had not brushed their teeth for three days, and in each case, 10 mg of the plaque were suspended in 1 mL of oligosaccharide solution (1% in 20 mM carbonate buffer, pH 7.5). In the course of the two-hour-long incubation time at 37° C., samples were taken and tested for their oligosaccharide content.

Data set [5] deals with Streptococcus mutans DSM 20523. Put plainly: Stability in the mouth: incubation with Streptococcus mutans. Format: in vitro ADME. Particulars: 1% in 20 mM carbonate buffer pH 7.5, 37° C., 2 h (120 min). The procedure: (§1) Streptococcus mutans and Streptococcus sobrinus were cultivated for 24 h in liquid DSM medium 92 under anaerobic conditions at 37° C. At the end of the logarithmic growth phase, the cells were centrifuged off (15 min, 4000×g) and resuspended in 10% of the original 20 mM carbonate buffer, pH 7.5. Subsequently, 9 mL of a solution of the oligosaccharides according to the present invention (1% in 20 mM carbonate buffer, pH 7.5) were inoculated with 1 mL of the bacterial suspension and incubated for 2 h at 37° C.

Data set [6] has as its system Streptococcus sobrinus NCTC 10922. Kind of data set: Stability in the mouth: incubation with Streptococcus sobrinus. Type of data set: in vitro ADME. Particulars: 1% in 20 mM carbonate buffer pH 7.5, 37° C., 2 h (120 min). The procedure:
as §1

Data set [7] relates to resected colon pieces (distal segment). Put plainly: Mucus secretion of resected colon pieces. The following applies: pig colon pieces, 5 h, 37°, Hanks buffer; galactomanno-oligosaccharides 1%. Format: cell-based. The method, then:
After thoroughly cleaning the resected colon of a freshly slaughtered pig, pieces measuring 1 cm^2 were cut from the distal segment of said colon. The pieces thus prepared were incubated, while stirring and fumigating with oxygen, for 5 h at a temperature of 37° in Hanks buffer to which chloramphenicol and ampicillin (50 μg/mL each) had been added. The buffer additionally contained 1% of the galactomanno-oligosaccharides produced according to the present invention and to be tested for their stimulating effect on the mucus secretion. As a control, 10 colon segments were used in each batch to be tested. One of the batches contained hydrocortisone which is normally used in the treatment of inflammatory intestinal diseases.
As a measure for an increase in the mucus secretion, the increase in the total carbohydrate content in the supernatant portion was measured. For this purpose, during the incubation, samples were collected at various times, and 20 μL of resorcin solution (6 mg/mL) and 100 μL of 75% sulfuric acid were added to 10 μL of each sample, and after an incubation time of 60 min at 80° C., the extinction was measured at λ=450 nm.

Data set [8] has as its system E. coli, 2 strains. Kind of data set: Adhesion of pathogenic microorganisms to human uroepithelial cells, E. coli. Type of data set: cell-based. The following applies: human uroepithelial cells preincubated with the carbohydrate. The procedure: (§2) Human uroepithelial cells obtained by means of centrifugation from first morning urine
(§3) Staphylococcus aureus, 2 strains, and E. coli, 2 strains, each as suspension with 10^9 microorganisms/mL
(§4) The epithelial cells and the suspension of microorganisms were combined and incubated for 30 min at 37° C. Subsequently, the epithelial cells were separated from the nonadherent microorganisms by means of membrane filtration (8 μ). The filters were repeatedly washed and placed into physiological saline solution, and the epithelial cells were suspended in said solution. After centrifuging the suspension in saline solution, the pellet was placed on a microscopic slide and stained according to May-Grünwald and Giemsa. The number of the microorganisms adhering to 50 epithelial cells as counted. The number represented the blank reading. Epithelial cells without the addition of a suspension of microorganisms served as the control.
(§5) In the main test, epithelial cells were first incubated for 1, 2, and 3 h with galactomanno-oligosaccharide solutions of different concentrations. They were subsequently combined with the suspension of microorganisms and treated as described above. The number of microorganisms adhering to 50 epithelial cells represented the measured value.

The subject of data set [9] is Staphylococcus aureus, 2 strains. Put plainly: Adhesion of pathogenic microorganisms to human uroepithelial cells, Staphylococcus aureus. Type of data set: cell-based. Particulars: human uroepithelial cells preincubated with the carbohydrate. The procedure: as §2, §3, §4, §5
In data set [10] the test system is granulocytes. Kind of data set: Phagocytosis assay, granulocytes. Format: cell-based. The following applies: 100 μg/batch, whole blood. The method, then:
(§6) The influence of the galactomanno-oligosaccharides according to the present invention on the function of the phagocytes (mono-, granulocytes) can be determined by means of phagocytosis assays. During the phagocytosis stimulation, the phagocytes were first incubated with galactomanno-oligosaccharides (100 μg of glycan/0. 11 mL of whole blood, 37° C., 10 min). A corresponding blank was incubated for 10 min in an ice bath. Subsequently, the actual phagocytosis test was carried out under the following conditions:
(§7) 0.11 mL of the preliminary incubation solution was allowed to stand for 10 min in the ice bath; subsequently, 0.01 mL of nonopsonized E. coli (fluorescein isothiocyanate (FITC) marked, 10^9 per mL, ORPEGEN) or 0.01 mL of nonopsonized Staphylococcus aureus (15×10^6 per mL, FITC marked, MOLECULAR PROBES) were added. The batches were incubated (double determinations) for 10 min at 37° C. The batches were washed twice with 3 mL of washing buffer (ORPEGEN) each and centrifuged at 250×g for 5 min at 4° C. […]
(§8) The measurement was carried out in the flow cytometer (excitation: 488 nm, emission FL-1: 520 nm); monocytes and granulocytes can be distinguished from each other without separation (forward light scatter (FSC) versus ([…]) (sideways light scatter). The results are expressed as a percentage of the phagocytosis-positive cells (see Table VI below). […]

In data set [11] the test system is monocytes. Put plainly: Phagocytosis assay, monocytes. Type of data set: cell-based. Particulars: E. coli nonopsonized, 100 μg/batch, whole blood. The method, then: as §6, §7, §8

With `OC[C@H]1O[C@@](CO)(OC[C@@]2(O[C@H]3O[C@H](CO)[C@@H](O)[C@H](O)[C@H]3O)O[C@H](CO)[C@@H](O)[C@@H]2O)[C@@H](O)[C@@H]1O` [1-Kestose, 1-kestose], the “Hydrolysis rate in %” value in [1] (pH 1 (0.1 M HCl), 60 min) was determined as 90%; in [1] (pH 1 (0.1 M HCl), 120 min), 100%; in data set [1] (pH 1 (0.1 M HCl), 180 min), 100%; in data set [1] (pH 2 (0.01 M HCl), 60 min) it was 16%; in data set [1] (pH 2 (0.01 M HCl), 120 min) it was 30%; in [1] (pH 2 (0.01 M HCl), 180 min), 43%.

`O=C[C@H](O)[C@@H](O)[C@@H](O)[C@H](O)CO` [D-Galactose]: in data set [2], the “Mittelwert (%) (mean value), specific adhesion” value is given as 51% and the Index is 1.12.

As to `O=C[C@H](O)[C@@H](O)[C@H](O)[C@H](O)CO` [D-Glucose], in data set [2], the “Mittelwert (%) (mean value), specific adhesion” value worked out at 47% and the Index worked out at 1.11.

With `OC[C@H]1O[C@@](CO)(O[C@H]2O[C@H](CO)[C@@H](O)[C@H](O)[C@H]2O)[C@@H](O)[C@@H]1O` [Saccharose, saccharose], the “Hydrolyserate (%) (Hydrolysis rate)” value in data set [3] stood at 98%. For the same molecule, the “cleavage/hydrolysis of the carbohydrate” value in data set [4], in data set [5] and in data set [6] was “completely hydrolyzed” throughout. Further, the “Hydrolysis rate in %” value in data set [1] (pH 1 (0.1 M HCl), 60 min) is on record as 24%; in [1] (pH 1 (0.1 M HCl), 120 min), 55%; in data set [1] (pH 1 (0.1 M HCl), 180 min) it was 61%; in data set [1] (pH 2 (0.01 M HCl), 60 min), 1%; in data set [1] (pH 2 (0.01 M HCl), 120 min), 2%; in data set [1] (pH 2 (0.01 M HCl), 180 min), 7%.

For `C[C@]12CCC(=O)C=C1CC[C@@H]1[C@@H]2[C@@H](O)C[C@@]2(C)[C@H]1CC[C@]2(O)C(=O)CO` [hydrocortisone], the “increase in the mucus secretion compared to the control (total carbohydrate in supernatant)” value in data set [7] is on record as “approximately 5.3 -fold”.

Take `OC[C@H]1O[C@H](O[C@]2(CO)O[C@H](CO[C@H]3O[C@H](CO)[C@@H](O)[C@H](O)[C@H]3O)[C@@H](O)[C@@H]2O)[C@H](O)[C@@H](O)[C@@H]1O` [isomelzitose]: the “number of microorganisms adhering to the epithelial cells” value (“number of microorganisms adhering” for short) in data set [8] and in data set [9] was “not reduced” throughout.

For `OC[C@H]1O[C@@](CO)(OC[C@@]2(OC[C@@]3(O[C@H]4O[C@H](CO)[C@@H](O)[C@H](O)[C@H]4O)O[C@H](CO)[C@@H](O)[C@@H]3O)O[C@H](CO)[C@@H](O)[C@@H]2O)[C@@H](O)[C@@H]1O` [nystose], the “number of microorganisms adhering” value in [8] and in data set [9] was “not reduced” in each case.

With `OC[C@H]1O[C@H](OC[C@H]2O[C@H](O[C@]3(CO)O[C@H](CO)[C@@H](O)[C@@H]3O)[C@H](O)[C@@H](O)[C@@H]2O)[C@H](O)[C@@H](O)[C@H]1O` [raffinose], the “number of microorganisms adhering” value in data set [8] and in data set [9] was “not reduced” in each case. Also, the “Granulocyten (% positive Zellen), phagocytosis-positive cells” value worked out at 17.0% in [10] (E. coli nonopsonized) and 30.0% in [10] (Staph. aureus nonopsonized). Moreover, the “Monocyten (% positive Zellen), phagocytosis-positive cells” value in [11] is 22.0%.
